In ChEMBL document CHEMBL4219125, “Small molecule modulators of PCSK9 - A literature and patent overview” (Bioorg Med Chem Lett, 2018):
Square brackets hold non-standard residues; d marks the D form. Peptide text beside a SMILES is read from it. hArg = N=C(N)NCCCC[C@H](N)C(=O)O

What was measured:
[1] = target: T1, Proprotein convertase subtilisin/kexin type 9 (Homo sapiens, UniProt Q8NBP7); assay: Activation of PCSK9 (unknown origin) expressed in human HepG2 cells assessed as decrease in LDL uptake at 25 uM; assay type: cell-based; design: scale not given: the % may be the effect or the level left; settings: hepg2, 25 µM
[2] = tested on: HeLa; assay: Inhibition of PCSK9 expression in human HeLa cells after overnight incubation by ELISA; assay type: functional, cell-based
[3] = tested on: Rattus norvegicus; assay: In vivo inhibition of PCSK9 in rat plasma assessed as decrease in total plasma cholesterol level at 50 mg/kg, po administered daily for 14 days; assay type: functional; settings: 336 h
[4] = tested on: Rattus norvegicus; assay: In vivo inhibition of PCSK9 in rat plasma assessed as decrease in LDL-c level at 50 mg/kg, po administered daily for 14 days; assay type: functional; settings: 336 h
[5] = tested on: Rattus norvegicus; assay: Reduction of circulating PCSK9 level in rat plasma at 50 mg/kg, po administered daily for 14 days; assay type: functional; settings: 336 h
[6] = Ratio of drug level in liver to plasma in monkey at 30 mg/kg, po; assay type: ADME, organism-based, Macaca mulatta; settings: rhesus monkey, liver and plasma
[7] = target: T1, Proprotein convertase subtilisin/kexin type 9; assay: Inhibition of PCSK9 (unknown origin) expressed in human HepG2 cells assessed as increase in LDL uptake at 0.5 uM; assay type: cell-based; design: scale not given: the % may be the effect or the level left
[8] = target: T1, Proprotein convertase subtilisin/kexin type 9; assay: Inhibition of recombinant human C-terminal His8-tagged PCSK9 expressed in Chinese hamster ovary cells by TR-FRET assay; assay type: cell-based
[9] = target: T1, Proprotein convertase subtilisin/kexin type 9; assay: Inhibition of PCSK9 in human HepG2 cells assessed as increase in LDL receptor levels at 200 uM after 18 to 24 hrs by Western blot analysis relative to control; assay type: cell-based
[10] = tested on: HepG2; assay: Inhibition of PCSK9 production in human HepG2 cells after 24 hrs by ELISA; assay type: functional, cell-based; settings: HepG2, 24 h
[11] = target: T1, Proprotein convertase subtilisin/kexin type 9; assay: Binding affinity to recombinant human C-terminal His8-tagged PCSK9 expressed in Chinese hamster ovary cells by biolayer interferometry
[12] = target: T1, Proprotein convertase subtilisin/kexin type 9; assay: Inhibition of PCSK9 (unknown origin) at 1.25 uM
[13] = tested on: Hamster; assay: In vivo inhibition of PCSK9 in dietary hyperlipidemia hamster model assessed as reduction in blood LDL-c level at 0.04 mg/kg, po administered daily for 7 days; assay type: functional; settings: Cricetinae, 168 h
[14] = tested on: Hamster; assay: In vivo inhibition of PCSK9 in dietary hyperlipidemia hamster model assessed as reduction in blood LDL-c level at 0.01 mg/kg, po administered daily for 7 days; assay type: functional; settings: Cricetinae, 168 h
[15] = tested on: Mus musculus; assay: Reduction in plasma total cholesterol level in C57BL/6 mouse at 4 mg/kg, sc administered once daily for 2 weeks with high fat diet by enzymatic method relative to untreated control; assay type: functional; design: scale not given: the % may be the effect or the level left
[16] = target: T1, Proprotein convertase subtilisin/kexin type 9; assay: Inhibition of PCSK9 in human HepG2 cells assessed as increase in LDLR expression levels at 1.6 uM relative to control; assay type: cell-based
[17] = target: T1, Proprotein convertase subtilisin/kexin type 9; assay: Inhibition of PCSK9 in human HepG2 cells assessed as increase in uptake of fluorescent Dil-LDL at 1.5 uM relative to control; assay type: cell-based
[18] = target: T1, Proprotein convertase subtilisin/kexin type 9; assay: Inhibition of PCSK9 in human HepG2 cells assessed as increase in uptake of fluorescent Dil-LDL at 0.37 uM relative to control; assay type: cell-based
[19] = tested on: Huh-7; assay: Inhibition of PCSK9 expression in human HuH7 cells after overnight incubation by ELISA; assay type: functional, cell-based
[20] = target: T1, Proprotein convertase subtilisin/kexin type 9; assay: Inhibition of binding of full-length recombinant human PCSK9 (M1 to Q692 residues) expressed in HEK293 cells to full-length LDLR (A1 to A699 residues) by SPR analysis
[21] = target: T1, Proprotein convertase subtilisin/kexin type 9; assay: Inhibition of recombinant PCSK9 (unknown origin) expressed in human HepG2 cells assessed as increase in LDL uptake at 1.25 uM after 16 hrs by fluorescence assay; assay type: cell-based; design: scale not given: the % may be the effect or the level left
[22] = target: T1, Proprotein convertase subtilisin/kexin type 9; assay: Inhibition of PCSK9 in human HuH7 cells assessed as increase in cell surface LDLR expression level at 100 uM by FACS analysis relative to control; assay type: cell-based; design: scale not given: the % may be the effect or the level left
[23] = target: T1, Proprotein convertase subtilisin/kexin type 9; assay: Inhibition of PCSK9 in human HuH7 cells assessed as increase in LDL uptake by FACS analysis; assay type: cell-based; design: scale not given: the % may be the effect or the level left
[24] = target: T1, Proprotein convertase subtilisin/kexin type 9; assay: Inhibition of PCSK9 (unknown origin) expressed in human HepG2 cells assessed as increase in LDL uptake at 100 uM; assay type: cell-based; design: scale not given: the % may be the effect or the level left
[25] = target: T1, Proprotein convertase subtilisin/kexin type 9; assay: Inhibition of recombinant PCSK9 (unknown origin) expressed in human HepG2 cells assessed as increase in LDL uptake at 10 uM after 16 hrs by fluorescence assay; assay type: cell-based; design: scale not given: the % may be the effect or the level left
[26] = target: T1, Proprotein convertase subtilisin/kexin type 9; assay: Inhibition of recombinant PCSK9 (unknown origin) expressed in human HepG2 cells assessed as increase in LDLR expression levels relative to control; assay type: cell-based; design: scale not given: the % may be the effect or the level left
[27] = target: T1, Proprotein convertase subtilisin/kexin type 9; assay: Inhibition of recombinant PCSK9 (unknown origin) expressed in human HepG2 cells assessed as increase in LDL uptake at 0.31 uM after 16 hrs by fluorescence assay; assay type: cell-based; design: scale not given: the % may be the effect or the level left

For `O=C(N[C@H](CNc1nn[nH]n1)Cc1c[nH]c2ccccc12)[C@H](Cc1ccc(O)cc1)NC(=O)C12CC3CC(CC(C3)C1)C2`, which Activity [1] is on record?
The Activity was 50%.

With `O=C(c1ccc(-n2nnc3cccnc32)cc1)N(c1ncccc1Cl)[C@@H]1CCCNC1` as the compound, how does the IC50 [2] read?
The IC50 was 500 nM.

What about the inhibition in vivo at 50 mg/kg [3] of the same compound?
The inhibition in vivo at 50 mg/kg was 30%.

What about the inhibition in vivo at 50 mg/kg [4] of the same compound?
The inhibition in vivo at 50 mg/kg was 58%.

And the inhibition in vivo at 50 mg/kg [5]?
Its inhibition in vivo at 50 mg/kg is 50%.

With `CCOC(=O)O[C@@H](C)n1nnnc1-c1c(-c2ccc(C(=O)N(c3ncccc3Cl)[C@@H]3CCCNC3)cc2F)cnn1C` [PF-06815345] as the compound, how does the Kp [6] read?
Its Kp is 28.

Which Activity [7] does the source give for `c1ccc2c(c1)NC1CNCCC21` (centres undefined) here?
Its Activity is 60%.

Which IC50 [8] does the source give for `CC[C@H](C)[C@H](NC(=O)[C@H](CCCCNC(=N)N)NC(=O)[C@@H](NC(=O)[C@H](CC(C)C)NC(=O)[C@H](CC(N)=O)NC(=O)[C@H](Cc1c[nH]c2ccccc12)NC(=O)CNC(=O)[C@@H]1CCCN1C(=O)[C@H](Cc1ccccc1)NC(=O)[C@H](CO)NC(=O)[C@H](CCC(=O)O)NC(=O)[C@@H](N)CCSC)C(C)C)C(=O)NCC(=O)N[C@@H](CC(C)C)C(=O)N[C@@H](CC(C)C)C(=O)N[C@@H](CCCNC(=N)N)C(=O)O` (H-MESFPGWNLV[hArg]IGLLR-OH) here?
The IC50 was 8300 nM.

Which fold change (FC) [9] does the source give for `Cc1ccc(C(=O)Nc2ccc(S(=O)(=O)O)c3cc(S(=O)(=O)O)cc(S(=O)(=O)O)c23)cc1NC(=O)c1cccc(NC(=O)Nc2cccc(C(=O)Nc3cc(C(=O)Nc4ccc(S(=O)(=O)O)c5cc(S(=O)(=O)O)cc(S(=O)(=O)O)c45)ccc3C)c2)c1` here?
Its fold change (FC) is 15.

For `FC(F)(F)c1ccc(-c2nc3c(ccc4cc[nH]c43)o2)cc1`, which IC50 [10] is on record?
Its IC50 is 29.7 nM.

Which Kd [11] does the source give for `CC(=O)N[C@H](C(=O)N[C@H](C(=O)N[C@@H](Cc1ccccc1)C(=O)N[C@H](C(=O)N[C@@H](CO)C(=O)N[C@@H](Cc1c[nH]c2ccccc12)C(=O)N[C@@H](CCC(=O)O)C(=O)N[C@@H](CCC(=O)O)C(=O)N[C@@H](Cc1ccc(O)cc1)C(=O)N[C@@H](CC(C)C)C(=O)N[C@@H](CC(=O)O)C(=O)N[C@@H](Cc1c[nH]c2ccccc12)C(=O)N[C@H](C(N)=O)C(C)C)[C@@H](C)O)C(C)C)[C@@H](C)O` here?
Its Kd is 700 nM.

For `CC(=O)Nc1ccc2nc(-c3ccc(C(F)(F)F)cc3)oc2c1C(F)(F)F`, which IC50 [10] is on record?
The IC50 was 2.1 nM.

With `O=S(=O)(Nc1cccc2c1CCCC2)c1ccc(N2CCNCC2)cc1` as the compound, how does the inhibition [12] read?
The inhibition was 66%.

Which results are given for `FC(F)(F)c1ccc(-c2nc3ccc(C(F)(F)F)c(Cl)c3o2)cc1`?
IC50 [10]: 0.036 nM; inhibition in vivo at 0.04 mg/kg [13]: 57%; inhibition in vivo at 0.01 mg/kg [14]: 46%

For `CC(C)c1c(C(=O)Nc2ccccc2)c(-c2ccccc2)c(-c2ccc(F)cc2)n1CC[C@@H](O)C[C@@H](O)CC(=O)O` [ATORVASTATIN], which Activity [15] is on record?
The Activity was 27%.

For `O=S(=O)(Nc1cccc2c1CCCC2)c1ccc(C2CCNCC2)cc1`, which inhibition [12] is on record?
Its inhibition is > 50%.

For `Cc1cc(C(=O)C2=C(O)C(=O)N(CCCN3CCOCC3)C2c2ccncc2)ccc1OCc1ccccc1` (centres undefined), which fold change (FC) [16] is on record?
The fold change (FC) was 8.

What about the fold change (FC) [17] of the same compound?
Its fold change (FC) is 10.

And the Activity [15]?
The Activity was 32%.

What about the fold change (FC) [18] of the same compound?
The fold change (FC) was 6.

For `COc1ccc(CCC(=O)N(c2nccc3ccccc23)[C@@H]2CCCNC2)cc1`, which IC50 [19] is on record?
The IC50 was 2200 nM.

For `Cn1cncc1-c1ncc(-c2ncc(-c3ncc(-c4ccccc4)n3C)n2C)n1C`, which IC50 [20] is on record?
The IC50 was 11200 nM.

Which fold change (FC) [17] does the source give for `CCN(CC)C(=O)c1ccc(NC(=O)CSc2nnc(-c3cccs3)n2C2CC2)cc1` here?
Its fold change (FC) is 5.

What about the fold change (FC) [18] of the same compound?
Its fold change (FC) is 3.

Which Activity [21] does the source give for `Cc1cc2c(cc1-c1ccccc1F)C(=O)NCC2` here?
Its Activity is 33%.

With H-VTVRFW-OH as the compound, how does the Activity [22] read?
The Activity was 100%.

What about the Activity [23] of the same compound?
The Activity was 95%.

Which IC50 [2] does the source give for `Cn1ncc(-c2ccc(C(=O)N(c3ncccc3Cl)[C@@H]3CCCNC3)cc2F)c1-c1nnn[nH]1` here?
Its IC50 is 3700 nM.

With `CC(=O)N[C@@H](CO)C(=O)N[C@@H](COP(=O)(O)O)C(=O)N1CCC(c2ccc(C(F)(F)F)cc2)CC1` as the compound, how does the Activity [24] read?
The Activity was 105%.

Which Activity [25] does the source give for `Cc1cc2c(cc1-c1ccccc1F)CNCC2` here?
Its Activity is > 100%.

What about the Activity [26] of the same compound?
The Activity was 10%.

What about the Activity [27] of the same compound?
Its Activity is 50%.
